Reference: patent US10568876B2, “Tetrahydroisoquinoline derivatives useful as inhibitors of diacylglyceride O-acyltransferase 2” (Merck Sharp & Dohme Corp., priority 2014, dated 2020)

These compounds were tested against hDGAT2 (Homo sapiens (Human), UniProt Q96PD7) (assay: DGAT2 Enzymatic Activity Assay). Settings: hDGAT2 Sf-9 membrane prep; 25 μM diolein, 10 μM oleoyl-CoA; triolein product by LC/MS/MS; read-out: IC50 values for inhibition of DGAT2.
hDGAT2, sequence (Q96PD7 whole entry): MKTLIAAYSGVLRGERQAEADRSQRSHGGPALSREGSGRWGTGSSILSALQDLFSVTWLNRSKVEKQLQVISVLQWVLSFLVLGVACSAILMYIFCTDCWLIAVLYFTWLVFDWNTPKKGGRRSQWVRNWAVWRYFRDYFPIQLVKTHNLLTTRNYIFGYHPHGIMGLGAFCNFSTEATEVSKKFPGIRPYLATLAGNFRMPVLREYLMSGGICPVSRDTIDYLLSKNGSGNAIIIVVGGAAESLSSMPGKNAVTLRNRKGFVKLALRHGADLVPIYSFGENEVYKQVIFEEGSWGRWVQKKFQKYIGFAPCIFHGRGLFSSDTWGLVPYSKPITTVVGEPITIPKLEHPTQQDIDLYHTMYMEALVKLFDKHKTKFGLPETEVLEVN
Type: biochemical
Outline: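 Membranes from Sf-9 cells expressing untagged hDGAT2 (10 ng/μL) incubated at room temperature with 25 μM diolein and 10 μM oleoyl-CoA in 100 mM Tris pH 7.0, 20 mM MgCl2, 5% ethanol. Triolein product quantified by LC/MS/MS against spiked internal standard; IC50 from 4-parameter sigmoidal fit.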
In the case of `Cc1noc([C@@H]2C[C@H]2C(=O)NCc2ccc(-c3cccc(OC(F)(F)F)c3)c3c2CN(Cc2noc(C4CC4)n2)CC3)n1` (relative stereo) [Example 101, (trans)-N-((2-((5-cyclopropyl-1,2,4-oxadiazol-3-yl)methyl)-5-(3-(trifluoromethoxy)phenyl)-1,2,3,4-tetrahydroisoquinolin-8-yl)methyl)-2-(3-methyl-1,2,4-oxadiazol-5-yl)cyclopropanecarboxamide], the IC50 is reported as 4500 nM.
With `Cc1noc([C@@H]2C[C@H]2C(=O)NCc2ccc(-c3cccc(OC(F)(F)F)c3)c3c2CN(CC(=O)N2COCC2(C)C)CC3)n1` (relative stereo) [Example 103, (trans)-N-((2-(2-(4,4-dimethyloxazolidin-3-yl)-2-oxoethyl)-5-(3-(trifluoromethoxy)phenyl)-1,2,3,4-tetrahydroisoquinolin-8-yl)methyl)-2-(3-methyl-1,2,4-oxadiazol-5-yl)cyclopropanecarboxamide] the IC50 was 1760 nM.
`Cc1noc([C@@H]2C[C@H]2C(=O)NCc2ccc(-c3cccc(OC(F)(F)F)c3)c3c2CN(Cc2noc(C(C)C)n2)CC3)n1` (relative stereo) [Example 104, (trans)-N-((2-((5-isopropyl-1,2,4-oxadiazol-3-yl)methyl)-5-(3-(trifluoromethoxy)phenyl)-1,2,3,4-tetrahydroisoquinolin-8-yl)methyl)-2-(3-methyl-1,2,4-oxadiazol-5-yl)cyclopropanecarboxamide] gave an IC50 of 5090 nM.
For `Cc1noc([C@@H]2C[C@H]2C(=O)NCc2ccc(-c3cccc(OC(F)(F)F)c3)c3c2CN(Cc2ccncn2)CC3)n1` (relative stereo) [Example 105, (trans)-2-(3-methyl-1,2,4-oxadiazol-5-yl)-N-((2-(pyrimidin-4-ylmethyl)-5-(3-(trifluoromethoxy)phenyl)-1,2,3,4-tetrahydroisoquinolin-8-yl)methyl)cyclopropanecarboxamide], the IC50 was 2610 nM.
In the case of `Cc1noc([C@@H]2C[C@H]2C(=O)NCc2ccc(-c3cccc(OC(F)(F)F)c3)c3c2CN(Cc2scnc2C)CC3)n1` (relative stereo) [Example 106, (trans)-2-(3-methyl-1,2,4-oxadiazol-5-yl)-N-((2-((4-methylthiazol-5-yl)methyl)-5-(3-(trifluoromethoxy)phenyl)-1,2,3,4-tetrahydroisoquinolin-8-yl)methyl)cyclopropanecarboxamide], the IC50 is reported as 1840 nM.
`Cc1noc([C@@H]2C[C@H]2C(=O)NCc2ccc(-c3cccc(OC(F)(F)F)c3)c3c2CN(Cc2cnccn2)CC3)n1` (relative stereo) [Example 107, (trans)-2-(3-methyl-1,2,4-oxadiazol-5-yl)-N-((2-(pyrazin-2-ylmethyl)-5-(3-(trifluoromethoxy)phenyl)-1,2,3,4-tetrahydroisoquinolin-8-yl)methyl)cyclopropanecarboxamide] gave an IC50 of 4770 nM.
Work on `COc1cccc(-c2ccc(CNC(=O)[C@H]3C[C@@H]3c3ccccc3)c3c2CCN(c2nccc(C(F)(F)F)n2)C3)c1` (relative stereo) [Example 109, (trans)-N-((5-(3-methoxyphenyl)-2-(4-(trifluoromethyl)pyrimidin-2-yl)-1,2,3,4-tetrahydroisoquinolin-8-yl)methyl)-2-phenylcyclopropanecarboxamide] yielded an IC50 of 4040 nM.
Compound `COc1cccc(-c2ccc(CNC(=O)[C@@H]3C[C@H]3c3ccccc3)c3c2CCN(C(=O)c2cc(F)cc(F)c2)C3)c1` (relative stereo) [Example 111, (trans)-N-((2-(3,5-difluorobenzoyl)-5-(3-methoxyphenyl)-1,2,3,4-tetrahydroisoquinolin-8-yl)methyl)-2-phenylcyclopropanecarboxamide] has an IC50 of 971 nM.
In the case of `COc1cccc(-c2ccc(CNC(=O)[C@@H]3C[C@H]3c3ccccc3)c3c2CCN(C(=O)C(C)(C)C)C3)c1` (relative stereo) [Example 113, (trans)-N-((5-(3-methoxyphenyl)-2-pivaloyl-1,2,3,4-tetrahydroisoquinolin-8-yl)methyl)-2-phenylcyclopropanecarboxamide], the IC50 is reported as 887 nM.
`COc1cccc(-c2ccc(CNC(=O)[C@@H]3C[C@H]3c3ccccc3)c3c2CCN(C(=O)C(C)(C)O)C3)c1` (relative stereo) [Example 117, (trans)-N-((2-(2-hydroxy-2-methylpropanoyl)-5-(3-methoxyphenyl)-1,2,3,4-tetrahydroisoquinolin-8-yl)methyl)-2-phenylcyclopropanecarboxamide] gave an IC50 of 831 nM.
In the case of `COc1cccc(-c2ccc(CNC(=O)[C@@H]3C[C@H]3c3ccccc3)c3c2CCN(C(=O)C(O)C(F)(F)F)C3)c1` (relative stereo) [Example 119, (trans)-N-((5-(3-methoxyphenyl)-2-(3,3,3-trifluoro-2-hydroxypropanoyl)-1,2,3,4-tetrahydroisoquinolin-8-yl)methyl)-2-phenylcyclopropanecarboxamide], the IC50 is reported as 1540 nM.
Work on `COC[C@H]1CCC[C@H]1NC(=O)CN1CCc2c(-c3cccc(OC(F)(F)F)c3)ccc(CNC(=O)C3CC3c3nc(C)no3)c2C1` (stereo in doubt) [Example 86, N-((2-(2-(((trans)-2-(methoxymethyl)cyclopentyl)amino)-2-oxoethyl)-5-(3-(trifluoromethoxy)phenyl)-1,2,3,4-tetrahydroisoquinolin-8-yl)methyl)-2-(3-methyl-1,2,4-oxadiazol-5-yl)cyclopropanecarboxamide] yielded an IC50 of 2290 nM.
With `Cc1noc([C@H]2C[C@@H]2C(=O)NCc2ccc(-c3cccc(C(F)(F)F)c3)c3c2CN(C(=O)C(C)(C)O)CC3)n1` (stereo in doubt) [Example 116, (trans)-N-((2-(2-hydroxy-2-methylpropanoyl)-5-(3-(trifluoromethyl)phenyl)-1,2,3,4-tetrahydroisoquinolin-8-yl)methyl)-2-(3-methyl-1,2,4-oxadiazol-5-yl)cyclopropanecarboxamide] the IC50 was 1580 nM.
In the case of `Cc1noc([C@@H]2C[C@H]2C(=O)NCc2ccc(-c3cccc(C(F)(F)F)c3)c3c2CN(C(=O)C(C)(C)O)CC3)n1` (stereo in doubt) [Example 120, (trans)-N-((2-(2-hydroxy-2-methylpropanoyl)-5-(3-(trifluoromethyl)phenyl)-1,2,3,4-tetrahydroisoquinolin-8-yl)methyl)-2-(3-methyl-1,2,4-oxadiazol-5-yl)cyclopropanecarboxamide], the IC50 is reported as 1580 nM.
`Cc1noc(C2CC2C(=O)NCc2ccc(-c3cccc(OC(F)(F)F)c3)c3c2CN(C(=O)NC(C)(C)C)CC3)n1` (stereo not drawn) [Example 1, N-(tert-butyl)-8-(((trans)-2-(3-methyl-1,2,4-oxadiazol-5-yl)cyclopropanecarboxamide)methyl)-5-(3-(trifluoromethoxy)phenyl)-3,4-dihydroisoquinoline-2(1H)-carboxamide] was tested, and the IC50 was 3.6 nM.
`CC(C)(C)NC(=O)N1CCc2c(-c3cccc(OC(F)(F)F)c3)ccc(CNC(=O)C3CC3c3cccnc3)c2C1` (stereo not drawn) [Example 4, N-(tert-butyl)-8-((2-(pyridin-3-yl)cyclopropanecarboxamido)methyl)-5-(3-(trifluoromethoxy)phenyl)-3,4-dihydroisoquinoline-2(1H)-carboxamide] was tested, and the IC50 was 11.7 nM.
For `COC(=O)c1cccc(-c2ccc(CNC(=O)C3CC3c3nc(C)no3)c3c2CCN(C(=O)NC(C)(C)C)C3)c1` (stereo not drawn) [Example 7, methyl 3-(2-(tert-butylcarbamoyl)-8-((2-(3-methyl-1,2,4-oxadiazol-5-yl)cyclopropanecarboxamido)methyl)-1,2,3,4-tetrahydroisoquinolin-5-yl)benzoate], the IC50 was 15.5 nM.
For `COc1cccc(-c2ccc(CNC(=O)C3CC3c3cccnc3)c3c2CCN(C(=O)NC(C)(C)C)C3)c1` (stereo not drawn) [Example 13, N-(tert-butyl)-5-(3-methoxyphenyl)-8-((2-(pyridin-3-yl)cyclopropanecarboxamido)methyl)-3,4-dihydroisoquinoline-2(1H)-carboxamide], the IC50 was 6.1 nM.
Work on `COC(=O)c1cccc(-c2ccc(CNC(=O)C3CC34CCCCC4)c3c2CCN(C(=O)NC(C)(C)C)C3)c1` (stereo not drawn) [Example 17, methyl 3-(2-(tert-butylcarbamoyl)-8-((spiro[2.5]octane-1-carboxamido)methyl)-1,2,3,4-tetrahydroisoquinolin-5-yl)benzoate] yielded an IC50 of 2.2 nM.
`COC(=O)c1cccc(-c2ccc(CNC(=O)C3CC3c3nc(C)no3)c3c2CCN(C(=O)NC(C)(C)C)C3)c1` (stereo not drawn) [Example 21, methyl 3-(2-(tert-butylcarbamoyl)-8-((2-(3-methyl-1,2,4-oxadiazol-5-yl)cyclopropanecarboxamido)methyl)-1,2,3,4-tetrahydroisoquinolin-5-yl)benzoate] was tested, and the IC50 was 15.5 nM.
For `CC(C)(C)NC(=O)N1CCc2c(-c3cncc(CO)c3)ccc(CNC(=O)C3C[C@H]3c3ccccc3)c2C1` (stereo partly drawn) [Example 28, N-(tert-butyl)-5-(5-(hydroxymethyl)pyridin-3-yl)-8-(((trans)-2-phenylcyclopropanrcarboxamido)methyl)-3,4-dihydroisoquinoline-2(1H)-carboxamide], the IC50 was 992 nM.
`CC(C)(C)NC(=O)N1CCc2c(-c3cccc(-c4ncon4)c3)ccc(CNC(=O)C3C[C@H]3c3ccccc3)c2C1` (stereo partly drawn) [Example 51, 5-(3-(1,2,4-oxadiazol-3-yl)phenyl)-N-(tert-butyI)-8-(((trans)-2-phenylcyclopropanecarboxamido)methyl)-3,4-dihydroisoquinoline-2(1H)-carboxamide] showed an IC50 of 5.78 nM.
Compound `COC(=O)c1cccc(-c2ccc(CNC(=O)C3CC3c3ccccc3)c3c2CCN(C(=O)NC2CC(F)(F)C2)C3)c1` (stereo not drawn) [Example 56, methyl 3-(2-((3,3-difluorocyclobutyl)carbamoyl)-8-((2-phenylcyclopropanecarboxamido)methyl)-1,2,3,4-tetrahydroisoquinolin-5-yl) benzoate] has an IC50 of 9.88 nM.
`COc1cccc(-c2ccc(CNC(=O)C3CC3c3ccccc3)c3c2CCN(C(=O)NC2CC(F)(F)C2)C3)c1` (stereo not drawn) [Example 57, N-(3,3-difluorocyclobutyl)-5-(3-methoxyphenyl)-8-((2-phenylcyclopropanecarboxamido)methyl)-3,4-dihydroisoquinoline-2(1H)-carboxamide] was tested, and the IC50 was 87 nM.
